Assay results taken from the supplement of paper PMC10627819.

Experiments:
[1] = tested on: S. pneumoniae D39V; assay: Bliss interaction score (quartile over a dose matrix) (fitness difference); higher = more antagonism (negative = synergy)
Outline: (§1)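 Fitness is OD595 at stationary-phase entry relative to the plate's robust no-drug mean, capped at 1. Single-drug fitness was inferred from combinations. The Bliss score is observed minus product-expected fitness, summarised by quartiles over technical, biological and donor/recipient replicates.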

[2] = tested on: B. subtilis 168; assay: as above
Outline: as §1

[3] = tested on: S. aureus DSM 20231; assay: as above
Outline: as §1

[4] = tested on: S. aureus Newman; assay: as above
Outline: as §1

[5] = tested on: S. pneumoniae D39V; assay: fitness (endpoint OD595 vs no drug) (fraction); higher = more growth
Outline: (§2)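 Plates with 384 wells were inoculated at OD595 0.01 using 30 µl of TSB, LB Lennox or CY, or 55 µl for S. pneumoniae. Incubation was at 37 °C, with OD595 measured every 30 min for 14 h. Fitness is the stationary-phase transition optical density over the robust mean of no-drug control wells, after first-reading background subtraction; it is capped at 1.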

[6] = tested on: B. subtilis 168; assay: as above
Outline: as §2
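Throughout, for Bliss interaction score (quartile over a dose matrix): first quartile when negative (synergy) and third quartile when positive (antagonism).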

CC1=C(C(=O)O)N2C(=O)[C@@H](NC(=O)[C@H](N)c3ccccc3)[C@H]2SC1 [Cephalexin] + CC(=O)NC[C@H]1CN(c2ccc(N3CCOCC3)c(F)c2)C(=O)O1 [Linezolid]
Conditions | Bliss interaction score
[1] | -0.075
[2] | 0.0768
[3] | 0.0858
[4] | 0.106

fitness, one replicate
Conditions | first compound 0.125 µg/mL | first compound 0.25 µg/mL | first compound 0.5 µg/mL | first compound 1 µg/mL
[5], partner 0.2 µg/mL | 0.778 | 0.84 | 0.829 | –
[5], partner 0.4 µg/mL | 0.667 | 0.707 | 0.726 | –
[5], partner 0.8 µg/mL | 0.222 | 0.36 | 0.375 | –
[6], partner 0.0625 µg/mL | – | 0.901 | 0.932 | 0.877
[6], partner 0.125 µg/mL | – | – | – | 0.66
[6], partner 0.25 µg/mL | – | – | – | 0.0828

fitness
Conditions | first compound 0.125 µg/mL | first compound 0.25 µg/mL | first compound 0.5 µg/mL | first compound 1 µg/mL | first compound 2 µg/mL | first compound 4 µg/mL
[5], partner 0.105 µg/mL | – | – | – | 0.606 | 0.0569 | 0.0509
[5], partner 0.21 µg/mL | – | – | – | 0.475 | 0.0291 | 0
[5], partner 0.42 µg/mL | – | – | – | 0.332 | 0.0014 | 0.0511
[6], partner 0.125 µg/mL | 0.569 | 0.582 | 0.601 | – | – | –
[6], partner 0.25 µg/mL | 0.121 | 0.119 | 0.117 | – | – | –
[6], partner 0.5 µg/mL | 0.0468 | 0.0463 | 0.0421 | – | – | –

CC1=C(C(=O)O)N2C(=O)[C@@H](NC(=O)[C@H](N)c3ccccc3)[C@H]2SC1 [Cephalexin] + CCC(C)C1C(=O)NC(=C)C(=O)NC(C(=O)NC(CSCC(C(=O)N1)NC(=O)/C(=C/C)/NC(=O)C(C(C)CC)N)C(=O)NC2C(SCC(NC(=O)CNC(=O)C3CCCN3C2=O)C(=O)NC(CCCCN)C(=O)NC4C(SCC(NC(=O)CNC(=O)C(NC(=O)C(NC(=O)C(NC(=O)CNC4=O)C)CC(C)C)CCSC)C(=O)NC(CC(=O)N)C(=O)NC(CCSC)C(=O)NC(CCCCN)C(=O)NC5C(SCC6C(=O)NC(C(=O)NC(CSC(C(C(=O)N6)NC(=O)C(NC5=O)C)C)C(=O)NC(CO)C(=O)NC(C(C)CC)C(=O)NC(CC7=CN=CN7)C(=O)NC(C(C)C)C(=O)NC(=C)C(=O)NC(CCCCN)C(=O)O)CC8=CN=CN8)C)C)C)CC(C)C [Nisin]
main component drawn
Conditions | Bliss interaction score
[1] | -0.0433
[2] | 0.0739
[3] | 0.0845
[4] | 0.0391

fitness, one replicate, main component drawn
Conditions | first compound 0.125 µg/mL | first compound 0.25 µg/mL | first compound 0.5 µg/mL | first compound 1 µg/mL
[5], partner 1.6 µg/mL | 0.111 | 0.067 | 0.12 | –
[5], partner 3.2 µg/mL | 0.0257 | 0.0254 | 0.0215 | –
[5], partner 6.4 µg/mL | 0.0326 | 0.0252 | 0.0194 | –
[6], partner 0.5 µg/mL | 0.827 | 0.849 | 0.85 | –
[6], partner 1 µg/mL | 0.819 | 0.833 | 0.845 | –
[6], partner 1.25 µg/mL | – | ≥ 1 | 0.914 | 0.959
[6], partner 1.6 µg/mL | – | 0.8 | 0.735 | 0.85
[6], partner 2 µg/mL | 0.564 | 0.546 | 0.643 | –
[6], partner 2.5 µg/mL | – | 0.323 | 0.638 | 0.621
[6], partner 3.2 µg/mL | – | 0.0408 | 0.05 | 0.038
[6], partner 4 µg/mL | 0.0357 | 0.0253 | 0.0342 | –
[6], partner 5 µg/mL | – | 0.0428 | 0.0078 | 0.0511
[6], partner 6.4 µg/mL | – | 0.055 | 0.052 | 0.0405
[6], partner 8 µg/mL | 0.0286 | 0.0256 | 0.0219 | –
[6], partner 16 µg/mL | 0.0223 | 0.0191 | 0.051 | –

fitness, [5], main component drawn
Conditions | first compound 1 µg/mL | first compound 2 µg/mL | first compound 4 µg/mL
partner 0.4275 µg/mL | – | – | 0.0461
partner 0.855 µg/mL | – | 0.0896 | 0.05
partner 1.71 µg/mL | 0.0562 | 0.0571 | 0.0769

CC1=C(C(=O)O)N2C(=O)[C@@H](NC(=O)[C@H](N)c3ccccc3)[C@H]2SC1 [Cephalexin] + CCC[C@@H]1C[C@@H](C(=O)N[C@@H]([C@H]2O[C@H](SC)[C@H](O)[C@@H](O)[C@H]2O)[C@@H](C)O)N(C)C1 [Lincomycin]
Conditions | Bliss interaction score
[1] | 0.159
[2] | -0.0209
[3] | 0.101
[4] | 0.0797

fitness, one replicate
Conditions | partner 0.1 µg/mL | partner 0.2 µg/mL | partner 0.4 µg/mL | partner 0.8 µg/mL
[5], first compound 0.125 µg/mL | – | 0.722 | 0.663 | 0.206
[5], first compound 0.25 µg/mL | – | 0.759 | 0.643 | 0.304
[5], first compound 0.5 µg/mL | – | 0.786 | 0.702 | 0.288
[6], first compound 1 µg/mL | ≥ 1 | ≥ 1 | ≥ 1 | –

Conditions | fitness
[5], first compound 1 µg/mL, partner 0.215 µg/mL | 0.832
[5], first compound 1 µg/mL, partner 0.43 µg/mL | 0.716
[5], first compound 1 µg/mL, partner 0.86 µg/mL | 0.403
[5], first compound 2 µg/mL, partner 0.43 µg/mL | 0.373
[5], first compound 2 µg/mL, partner 0.86 µg/mL | 0.176
[5], first compound 4 µg/mL, partner 0.215 µg/mL | 0.0258
[5], first compound 4 µg/mL, partner 0.43 µg/mL | 0.0283
[5], first compound 4 µg/mL, partner 0.86 µg/mL | 0.0358
[6], first compound 0.125 µg/mL, partner 0.1 µg/mL | 0.901
[6], first compound 0.125 µg/mL, partner 0.2 µg/mL | 0.876
[6], first compound 0.125 µg/mL, partner 0.4 µg/mL | 0.852
[6], first compound 0.25 µg/mL, partner 0.1 µg/mL | 0.941
[6], first compound 0.25 µg/mL, partner 0.2 µg/mL | 0.937
[6], first compound 0.25 µg/mL, partner 0.4 µg/mL | 0.913
[6], first compound 0.5 µg/mL, partner 0.1 µg/mL | 0.939
[6], first compound 0.5 µg/mL, partner 0.2 µg/mL | 0.901
[6], first compound 0.5 µg/mL, partner 0.4 µg/mL | 0.852
